# Measured values taken from patent US6777425B2, “Isoquinoline compounds having antiinfective activity” (Genesoft Pharmaceuticals, Inc., priority 2001, dated 2004).
# What was measured:
# E. faecalis ATCC 29212 = test: NCCLS broth microdilution MIC, E. faecalis; type: cell-based; conditions: organism C = E. faecalis ATCC 29212
# Text: (§1) Compounds according to this invention were screened for their in vitro activities against selected species of bacteria and fungi. […]
# B. cereus ATCC 11778 = test: NCCLS broth microdilution MIC, B. cereus; type: cell-based, Bacillus cereus; conditions: organism A = B. cereus ATCC 11778
# Text: as §1
# S. pneumoniae ATCC 49619 = test: NCCLS broth microdilution MIC, S. pneumoniae ATCC 49619; type: cell-based, Streptococcus pneumoniae; conditions: organism H = S. pneumoniae ATCC 49619
# Text: as §1
# C. albicans ATCC 38247 = test: Antifungal MIC, C. albicans; type: cell-based, Candida albicans; conditions: organism B = C. albicans ATCC 38247
# Text: as §1
# S. aureus ATCC 13709 = test: NCCLS broth microdilution MIC, S. aureus (MSSA); type: cell-based, Staphylococcus aureus; conditions: organism E = S. aureus ATCC 13709 (MSSA)
# Text: as §1
# S. aureus ATCC 27660 = test: NCCLS broth microdilution MIC, S. aureus (MRSA); type: cell-based, Staphylococcus aureus; conditions: organism F = S. aureus ATCC 27660 (MRSA)
# Text: as §1
# [1] = Staphylococcus aureus, read-out: Minimum Inhibitory Concentration (MIC)
Structure (SMILES),Minimum Inhibitory Concentration (MIC) (E. faecalis ATCC 29212),Minimum Inhibitory Concentration (MIC) (B. cereus ATCC 11778),Minimum Inhibitory Concentration (MIC) (S. pneumoniae ATCC 49619),Minimum Inhibitory Concentration (MIC) (C. albicans ATCC 38247),Minimum Inhibitory Concentration (MIC) (S. aureus ATCC 13709),Minimum Inhibitory Concentration (MIC) (S. aureus ATCC 27660),"MIC (E. faecalis ATCC 29212; Enterococcus faecalis, ATCC29212, read-out: Minimum Inhibitory Concentration (MIC)) [µg/mL]","MIC (B. cereus ATCC 11778; Bacillus cereus, ATCC11778, read-out: Minimum Inhibitory Concentration (MIC)) [µg/mL]","MIC (S. pneumoniae ATCC 49619; Streptococcus pneumoniae, ATCC49619, read-out: Minimum Inhibitory Concentration (MIC)) [µg/mL]",MIC (S. aureus ATCC 13709; [1]) [µg/mL],"MIC (C. albicans ATCC 38247; Candida albicans, ATCC38247, read-out: Minimum Inhibitory Concentration (MIC)) [µg/mL]",MIC (S. aureus ATCC 27660; [1]) [µg/mL]
Cn1cc(NC(=O)c2cc(NC(=O)c3cc(NC(=O)c4nccc5ccccc45)cn3C)cn2C)cc1C(=O)NCCN1CCOCC1 [Ib-1],+++ (+++ = MIC ≦ 4),+++ (+++ = MIC ≦ 4),+++ (+++ = MIC ≦ 4),>32 µg/mL,–,–,–,–,–,–,–,–
Cn1cc(NC(=O)c2cc3ccccc3cn2)cc1C(=O)Nc1cc(C(=O)Nc2cn(C)c(C(=O)NCCN3CCOCC3)n2)n(C)c1 [Ib-58],+++ (+++ = MIC ≦ 4),>32 µg/mL,+++ (+++ = MIC ≦ 4),>32 µg/mL,++ (++ = 4 < MIC < 12),>32 µg/mL,–,–,–,–,–,–
Cn1cc(NC(=O)c2cc(NC(=O)c3cc4ccccc4cn3)no2)cc1C(=O)OCCN1CCOCC1 [Ib-61],+++ (+++ = MIC ≦ 4),>32 µg/mL,+++ (+++ = MIC ≦ 4),>32 µg/mL,+ (+ = 12 ≦ MIC ≦ 32),+++ (+++ = MIC ≦ 4),–,–,–,–,–,–
Cn1cc(NC(=O)c2cc(NC(=O)c3cc(NC(=O)c4cc5ccccc5cn4)c[nH]3)cn2C)cc1C(=O)NCCc1ccccn1 [Ib-69],+++ (+++ = MIC ≦ 4),+++ (+++ = MIC ≦ 4),+++ (+++ = MIC ≦ 4),>32 µg/mL,+++ (+++ = MIC ≦ 4),+++ (+++ = MIC ≦ 4),–,–,–,–,–,–
COCn1cc(NC(=O)c2cc3ccccc3cn2)cc1C(=O)Nc1cc(C(=O)Nc2cc(C(=O)NCCN3CCOCC3)n(C)c2)n(C)c1 [Ib-72],+++ (+++ = MIC ≦ 4),+++ (+++ = MIC ≦ 4),+++ (+++ = MIC ≦ 4),>32 µg/mL,+++ (+++ = MIC ≦ 4),+++ (+++ = MIC ≦ 4),–,–,–,–,–,–
CN(C)CCSCCn1cc(NC(=O)c2cc3ccccc3cn2)cc1C(=O)Nc1cc(C(=O)Nc2ccc3cnccc3c2)n(C)c1 [Ib-73],+++ (+++ = MIC ≦ 4),+++ (+++ = MIC ≦ 4),+++ (+++ = MIC ≦ 4),+++ (+++ = MIC ≦ 4),+++ (+++ = MIC ≦ 4),+++ (+++ = MIC ≦ 4),–,–,–,–,–,–
CC(=O)[O-].Cc1cc(NC(=O)c2cc(NC(=O)c3cc(NC(=O)c4cc5ccccc5cn4)cn3C)cn2CCC[N+](C)(C)C)sn1 [Ib-74],>32 µg/mL,>32 µg/mL,>32 µg/mL,>32 µg/mL,>32 µg/mL,>32 µg/mL,–,–,–,–,–,–
Cc1cc(NC(=O)c2cc(NC(=O)c3nc(NC(=O)c4cc5ccccc5cn4)cn3C)cn2CCN2CCOCC2)sn1 [Ib-77],+++ (+++ = MIC ≦ 4),+++ (+++ = MIC ≦ 4),+++ (+++ = MIC ≦ 4),>32 µg/mL,+++ (+++ = MIC ≦ 4),+++ (+++ = MIC ≦ 4),–,–,–,–,–,–
CN(C)CCSCCn1cc(NC(=O)c2cc3ccccc3cn2)cc1C(=O)Nc1cc(C(=O)Nc2cc(C(=O)NCCN3CCOCC3)n(C)c2)n(C)c1 [Ib-79],+++ (+++ = MIC ≦ 4),+++ (+++ = MIC ≦ 4),+++ (+++ = MIC ≦ 4),>32 µg/mL,+++ (+++ = MIC ≦ 4),+++ (+++ = MIC ≦ 4),–,–,–,–,–,–

# Continued, values first:
Minimum Inhibitory Concentration (MIC) (E. faecalis ATCC 29212),Minimum Inhibitory Concentration (MIC) (B. cereus ATCC 11778),Minimum Inhibitory Concentration (MIC) (S. pneumoniae ATCC 49619),Minimum Inhibitory Concentration (MIC) (C. albicans ATCC 38247),Minimum Inhibitory Concentration (MIC) (S. aureus ATCC 13709),Minimum Inhibitory Concentration (MIC) (S. aureus ATCC 27660),"MIC (E. faecalis ATCC 29212; Enterococcus faecalis, ATCC29212, read-out: Minimum Inhibitory Concentration (MIC)) [µg/mL]","MIC (B. cereus ATCC 11778; Bacillus cereus, ATCC11778, read-out: Minimum Inhibitory Concentration (MIC)) [µg/mL]","MIC (S. pneumoniae ATCC 49619; Streptococcus pneumoniae, ATCC49619, read-out: Minimum Inhibitory Concentration (MIC)) [µg/mL]",MIC (S. aureus ATCC 13709; [1]) [µg/mL],"MIC (C. albicans ATCC 38247; Candida albicans, ATCC38247, read-out: Minimum Inhibitory Concentration (MIC)) [µg/mL]",MIC (S. aureus ATCC 27660; [1]) [µg/mL],Structure (SMILES)
+++ (+++ = MIC ≦ 4),+++ (+++ = MIC ≦ 4),+++ (+++ = MIC ≦ 4),>32 µg/mL,+++ (+++ = MIC ≦ 4),+++ (+++ = MIC ≦ 4),–,–,–,–,–,–,CCN(CC)CCNC(=O)c1cc(NC(=O)c2cc(NC(=O)c3cc(NC(=O)c4cc5ccccc5cn4)cn3C)cn2C)sn1 [Ib-53]
+++ (+++ = MIC ≦ 4),+++ (+++ = MIC ≦ 4),+++ (+++ = MIC ≦ 4),>32 µg/mL,+++ (+++ = MIC ≦ 4),+++ (+++ = MIC ≦ 4),–,–,–,–,–,–,Cn1cc(NC(=O)c2cc(NC(=O)c3cc(NC(=O)c4cc5ccccc5cn4)cn3C)cn2CCN2CCOCC2)cc1C(=O)NCCN1CCOCC1 [Ib-57]
+++ (+++ = MIC ≦ 4),+++ (+++ = MIC ≦ 4),+++ (+++ = MIC ≦ 4),>32 µg/mL,++ (++ = 4 < MIC < 12),+++ (+++ = MIC ≦ 4),–,–,–,–,–,–,Cn1cc(NC(=O)c2cc(NC(=O)c3cc(NC(=O)c4cc5ccccc5cn4)c[nH]3)cn2C)cc1C(=O)NCCN1CCCCC1 [Ib-62]
+++ (+++ = MIC ≦ 4),+++ (+++ = MIC ≦ 4),+++ (+++ = MIC ≦ 4),>32 µg/mL,+++ (+++ = MIC ≦ 4),+++ (+++ = MIC ≦ 4),–,–,–,–,–,–,Cc1cc(NC(=O)c2cc(NC(=O)c3cc(NC(=O)c4cc5ccccc5cn4)cn3C)cn2CCN2CCOCC2)sn1 [Ib-63]
+++ (+++ = MIC ≦ 4),+++ (+++ = MIC ≦ 4),+++ (+++ = MIC ≦ 4),>32 µg/mL,+++ (+++ = MIC ≦ 4),+++ (+++ = MIC ≦ 4),–,–,–,–,–,–,Cc1cc(NC(=O)c2cc(NC(=O)c3cc(NC(=O)c4cc5ccccc5cn4)cn3C)cn2CCN2CCCC2)sn1 [Ib-65]
+++ (+++ = MIC ≦ 4),+++ (+++ = MIC ≦ 4),+++ (+++ = MIC ≦ 4),>32 µg/mL,+++ (+++ = MIC ≦ 4),+++ (+++ = MIC ≦ 4),–,–,–,–,–,–,Cn1cc(NC(=O)c2cc(NC(=O)c3cc(NC(=O)c4cc5ccccc5cn4)c[nH]3)cn2C)cc1C(=O)NCCN1CCC(F)CC1 [Ib-71]
–,–,–,–,–,–,< 4,< 4,< 4,< 4,> 32,< 4,Cn1cc(NC(=O)c2cc(NC(=O)c3cc(NC(=O)c4cc5ccccc5cn4)c[nH]3)cn2C)cc1C(=O)NCCN1CCSCC1 [Ib-75]
+++ (+++ = MIC ≦ 4),+++ (+++ = MIC ≦ 4),+++ (+++ = MIC ≦ 4),>32 µg/mL,+++ (+++ = MIC ≦ 4),+++ (+++ = MIC ≦ 4),–,–,–,–,–,–,Cn1cc(NC(=O)c2cc(NC(=O)c3cc(NC(=O)c4cc5ccccc5cn4)c[nH]3)cn2C)cc1C(=O)NCCc1ccncc1 [Ib-76]
